Results published in patent US9624215B2, “Amine derivative or salt thereof” (TOYAMA CHEMICAL CO., LTD., priority 2012, dated 2017).

system: normal human neonatal foreskin epidermal keratinocytes (NHEK-F); experiment: Cell proliferation inhibition test; type: cell-based; settings: Keratinocyte, 72 h, NHEK-F cells, three days incubation, ATPlite or CellTiterGlo, read-out: IC50 (concentration of the compound at which the cell count is reduced by 50%)
Procedure: 2×10^3 normal human neonatal foreskin epidermal keratinocytes (NHEK-F) (Kurabo, KK-4009) were suspended in 100 μL of Humedia-EG2 (Kurabo, KK-2150S) medium, plated in a 96-well plate and incubated overnight. The test compound was added on the following day and the cells were incubated for further three days. The cell count was determined using ATPlite (PerkinElmer, 6016739) or CellTiterGlo (Promega, G7573).
The inhibition rate was calculated from the following formula to determine the concentration of the compound at which the cell count is reduced by 50% (IC50). Inhibition rate (%)=100−(cell count in the presence of test compound/cell count in the absence of test compound)×100

Structure (SMILES)	IC50
O=C(O)c1cc(C2CC2)cnc1Nc1ccc2ccn(-c3ccccc3)c2c1 [Example 525, 5-cyclopropyl-2-((1-phenyl-1H-indol-6-yl)amino)nicotinic acid]	≤ 10 nM
CC(C)c1ccc(Nc2ccc3c(ccn3Cc3ccccc3)c2)c(C(=O)O)c1 [Example 114, 2-((1-benzyl-1H-indol-5-yl)amino)-5-isopropylbenzoic acid]	≤ 10 nM
O=C(O)c1cc(C2CC2)cnc1Nc1cccc2ccccc12 [Example 371, 5-cyclopropyl-2-(naphthalen-1-ylamino)nicotinic acid]	100 to 1000 nM
O=C(O)c1cc(Cl)ccc1Nc1ccc2ccn(Cc3ccccc3)c2c1 [Example 4, 2-((1-benzyl-1H-indol-6-yl)amino)-5-chlorobenzoic acid]	100 to 1000 nM
COCCOc1cccc(Cn2ccc3cc(Nc4ncc(C5CC5)cc4C(=O)O)ccc32)c1 [Example 506, 5-cyclopropyl-2-((1-(3-(2-methoxyethoxyl)benzyl)-1H-indol-5-yl)amino)nicotinic acid]	≤ 10 nM
O=C(O)c1cc(C2CC2)cnc1Nc1ccc2c(-c3ccccc3)ncnc2c1 [Example 529, 5-cyclopropyl-2-((4-phenylquinazolin-7-yl)amino)nicotinic acid]	10 to 100 nM
O=C(O)c1cc(Cl)ccc1Nc1ccc2c(c1)cc(CO)n2Cc1ccccc1 [Example 25, 2-((1-benzyl-2-(hydroxymethyl)-1H-indol-5-yl)amino)-5-chlorobenzoic acid]	10 to 100 nM
CC(C)n1ccc2cc(Nc3ncc(C4CC4)cc3C(=O)O)ccc21 [Example 123, 5-cyclopropyl-2-((1-isopropyl-1H-indol-5-yl)amino)nicotinic acid]	10 to 100 nM
COc1ccc(Cn2ccc3cc(Nc4ccc(Cl)cc4C(=O)O)ccc32)cc1 [Example 347, 5-chloro-2-((1-(4-methoxybenzyl)-1H-indol-5-yl)amino)benzoic acid]	10 to 100 nM
O=C(O)c1cc(C2CC2)cnc1Nc1ccc2c(-c3ccccc3)cn(CC3CC3)c2c1 [Example 45, 5-cyclopropyl-2-((1-(cyclopropylmethyl)-3-phenyl-1H-indol-6-yl)amino)nicotinic acid]	10 to 100 nM
Cc1ccccc1-c1cn(C)c2ccc(Nc3ncc(C4CC4)cc3C(=O)O)cc12 [Example 567, 5-cyclopropyl-2-((1-methyl-3-(2-methylphenyl)-1H-indol-5-yl)amino)nicotinic acid]	10 to 100 nM
Cc1cc2cc(Nc3ncc(C4CC4)cc3C(=O)O)ccc2n1CC(C)C [Example 550, 5-cyclopropyl-2-((1-isobutyl-2-methyl-1H-indol-5-yl)amino)nicotinic acid]	10 to 100 nM
O=C(O)c1cc(C2CC2)cnc1Nc1cccc2c1ccc(=O)n2-c1ccccc1 [Example 401, 5-cyclopropyl-2-((2-oxo-1-phenyl-1,2-dihydroquinolin-5-yl)amino)nicotinic acid]	100 to 1000 nM
CCn1ccc2cc(Nc3ncc(C4CC4)cc3C(=O)O)ccc21 [Example 121, 5-cyclopropyl-2-((1-ethyl-1H-indol-5-yl)amino)nicotinic acid]	100 to 1000 nM
Cc1cn(CC(C)C)c2ccc(Nc3ncc(C4CC4)cc3C(=O)O)cc12 [Example 535, 5-cyclopropyl-2-((1-isobutyl-3-methyl-1H-indol-5-yl)amino)nicotinic acid]	≤ 10 nM
O=C(O)c1cc(Cl)ccc1Nc1ccc2c(ccn2Cc2cccnc2)c1 [Example 349, 5-chloro-2-((1-(pyridin-3-ylmethyl)-1H-indol-5-yl)amino)benzoic acid]	100 to 1000 nM
COc1cnc(Nc2ccc3c(ccn3Cc3ccccc3)c2)c(C(=O)O)c1 [Example 132, 2-((1-benzyl-1H-indol-5-yl)amino)-5-methoxynicotinic acid]	10 to 100 nM
O=C(O)c1cc(C2CC2)cnc1Nc1cccc2c(-c3ccccc3)nccc12 [Example 185, 5-cyclopropyl-2-((1-phenylisoquinolin-5-yl)amino)nicotinic acid]	≤ 10 nM
